Results taken from PubChem BioAssay (NCI).
“And” between values parts separate entries of the source, which are not always exact repeats. Identical values can stand only once.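 Assay format: 96-well plates, 48-hour exposure. GI50 marks 50% less growth. TGI marks complete inhibition of growth.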

Assays:
Experiment in all cases: inhibition of tumour cell growth, NCI panel, 48 h
[1] = system: NCI-H460 lung
[2] = system: 786-0 renal
[3] = system: NCI-H226 lung
[4] = system: MCF7 breast
[5] = system: HCT-15 colon
[6] = system: SF-295 CNS
[7] = system: SNB-75 CNS
[8] = system: K-562 leukemia
[9] = system: CCRF-CEM leukemia
[10] = system: RPMI-8226 leukemia

SMILES | TGI [1] | TGI [2] | TGI [3] | TGI [4] | TGI [5] | TGI [6] | TGI [7] | TGI [8] | TGI [9] | TGI [10] | GI50 [1] | GI50 [3] | GI50 [4] | GI50 [5] | GI50 [6] | GI50 [7] | GI50 [8] | GI50 [9] | GI50 [10]
COC(=O)C1=C(C)NC(C)=C(C(=O)OC)C1c1nc2sccn2c1[N+](=O)[O-] | > 100 µM | > 100 µM | > 100 µM | > 100 µM | > 100 µM | > 100 µM | > 100 µM | > 100 µM | > 100 µM | > 100 µM |  |  |  |  |  |  |  |  | 
Nc1ccc(S(=O)(=O)Nc2nccs2)cc1 | > 100 µM | > 100 µM | > 100 µM | > 100 µM | > 100 µM | > 100 µM | > 100 µM | > 100 µM | > 100 µM | > 100 µM |  |  |  |  |  |  |  |  | 
C=CCOc1ccc(C2C(C(=O)OCC)C(=O)CC(C)(O)C2C(=O)OCC)cc1OC (stereo not drawn) | > 100 µM | > 100 µM | > 100 µM | > 100 µM | > 100 µM | > 100 µM | > 100 µM | > 100 µM | > 100 µM | > 100 µM |  |  |  |  |  |  |  |  | 
Nc1ccc(C(=O)N2CCC[C@H]2CO)c(N)c1 | > 100 µM | > 100 µM | > 100 µM | > 100 µM | > 100 µM | > 100 µM | > 100 µM | > 100 µM | > 100 µM | > 100 µM |  |  |  |  |  |  |  |  | 
COC1C=COC2(C)Oc3c(C)c(O)c4c(O)c(c(C5SCCS5)c(O)c4c3C2=O)NC(=O)C(C)=C/C=C\C(C)C2OC(C)(C)OC(C2C)C(C)C(OC(C)=O)C1C (stereo not drawn) | 63.2 µM | 44 µM | 22.1 µM | 7.77 µM | 38.4 µM | 28.7 µM | > 100 µM | > 100 µM | > 100 µM | > 100 µM |  |  |  |  |  |  |  |  | 
COc1ccc(-c2nn(-c3ccc(NC(=O)Nc4cc(C(F)(F)F)cc(C(F)(F)F)c4)cc3)cc2-c2ccncc2)cc1Cl | 5.95 µM |  | 34.2 µM | 9.72 µM | > 100 µM | > 100 µM | 8.11 µM | > 100 µM | > 100 µM | 3.58 µM | 1.91 µM | 4.1 µM | 2.86 µM | 2.88 µM | 2.52 µM | 1.8 µM | 2.77 µM | 2.28 µM | 1.23 µM
COC(=O)C1CCCN1C(=O)C(Cc1cn(S(=O)(=O)c2ccc(C)cc2)cn1)NC(=O)OC(C)(C)C (stereo not drawn) | > 100 µM | > 100 µM | > 100 µM | > 100 µM | > 100 µM |  | > 100 µM | > 100 µM | > 100 µM | > 100 µM |  |  |  |  |  |  |  |  | 
CSc1cnc2ccccc2c1SC1CN(Cc2ccccc2)c2ccccc2C1=O (stereo not drawn) | > 100 µM | > 100 µM | > 100 µM | > 100 µM | > 100 µM | > 100 µM | > 100 µM | > 100 µM | > 100 µM | > 100 µM |  |  |  |  |  |  |  |  | 
N#Cc1c(Cl)cc(Cl)n2c1nc1ccccc12 | 23.7 µM | 7.63 µM | 33.8 µM | 24 µM | 12.3 µM | 32.4 µM | 32.7 µM | 11.5 µM | > 100 µM | 58.9 µM |  |  |  |  |  |  |  |  | 
CC(C)(C)OC(=O)NCCCNC1(c2cc3ccccc3s2)CCCCC1 | 30.5 µM | 28.8 µM | 46.1 µM | 30.6 µM | 29.5 µM | 28.4 µM | 30.2 µM | 26.3 µM | 40.3 µM | 13.7 µM |  |  |  |  |  |  |  |  | 
C#C[C@]1(O)CC[C@H]2[C@@H]3CCC4=C/C(=N/OC(=O)c5cccc6c(=O)c7ccccc7[nH]c56)CC[C@@H]4[C@H]3CC[C@@]21C | > 100 µM | > 100 µM | > 100 µM | > 100 µM | > 100 µM | > 100 µM | > 100 µM | 59 µM | 39.1 µM | 54 µM |  |  |  |  |  |  |  |  | 
COc1ccc(C2COc3cc(O)c(O)cc3C2)cc1 (stereo not drawn) | 213 µM |  | 213 µM | 176 µM | 99.3 µM | 205 µM | 164 µM | 34.2 µM | 16.1 µM | 25.2 µM |  |  |  |  |  |  |  |  | 
CN(C)CCOC1(Cc2ccc(F)cc2)CCC(C(C)(C)C)CC1 (stereo not drawn) | 11.1 µM and 7.09 µM | 15.9 µM and 11.7 µM | 27.5 µM and 26.8 µM | 14.3 µM and 18.3 µM | 21.9 µM and 19.7 µM | 11.9 µM and 13.1 µM | 17.2 µM and 16.5 µM | 5.05 µM and 7.04 µM | 9.82 µM and 12.9 µM | 5.09 µM and 7.79 µM |  |  |  |  |  | 4.03 µM and 8.49 µM |  |  | 
CCC(=O)ONC(=O)Cn1ccc([N+](=O)[O-])n1 |  | > 100 µM | > 100 µM | > 100 µM |  | > 100 µM | > 100 µM | > 100 µM | > 100 µM | > 100 µM |  |  |  |  |  |  |  |  | 
COc1ccc2c(c1)CCN1CCc3ccccc3CC21 (stereo not drawn) | > 100 µM | > 100 µM | 83.5 µM | > 100 µM | > 100 µM | 56.1 µM | > 100 µM | > 100 µM | > 100 µM | 54.9 µM |  |  |  |  |  |  |  |  | 
On1c(-c2ccccc2)nc2ccccc2c1=S | 61.8 µM | > 100 µM | > 100 µM | > 100 µM | > 100 µM | > 100 µM | > 100 µM | > 100 µM | > 100 µM | > 100 µM |  |  |  |  |  |  |  |  | 

SMILES | TGI [1] | TGI [2] | TGI [3] | TGI [4] | TGI [5] | TGI [6] | TGI [7] | TGI [8] | TGI [9] | TGI [10] | GI50 [1] | GI50 [3] | GI50 [4] | GI50 [5] | GI50 [6] | GI50 [7] | GI50 [8] | GI50 [9] | GI50 [10]
COc1nc2nccnc2c(=O)n1C | > 10 µM | > 10 µM | > 10 µM | > 10 µM | > 10 µM | > 10 µM | > 10 µM | > 10 µM | > 10 µM | > 10 µM |  |  |  |  |  |  |  |  | 
Nc1nc(Cl)cc(NCC2(CO)CCCC2)n1 | > 100 µM | > 100 µM | > 100 µM | > 100 µM | > 100 µM | > 100 µM | > 100 µM | > 100 µM | > 100 µM | > 100 µM |  |  |  |  |  |  |  |  | 
CC12CCC(O)CC1CCC1C2CCC2(C)C(C(=O)CC(O)C(F)(F)F)CCC12 (stereo not drawn) | > 100 µM | 21.6 µM | > 100 µM | > 100 µM | > 100 µM | 26.7 µM | 81.1 µM | 17.4 µM | > 93.1 µM | 26.6 µM |  |  |  |  |  |  |  |  | 
NNC(=O)CSc1nc2ccccc2c(=O)n1N | > 100 µM | 57.4 µM | > 100 µM | > 100 µM | > 100 µM | > 100 µM | 33 µM | > 100 µM | > 100 µM | > 100 µM |  |  |  |  |  |  |  |  | 
CC(=O)[C@@]1(O)CC[C@H]2[C@@H]3C[C@H](C)C4=CC(=O)C=C[C@]4(C)[C@@]3(F)[C@@H](O)C[C@@]21C | > 100 µM | > 100 µM | > 100 µM | > 100 µM | > 100 µM | > 100 µM | > 91.9 µM | > 100 µM | > 100 µM | > 100 µM |  |  |  |  |  |  |  |  | 
CCC1(C)C=Cc2c(cc(O)c3c(=O)c4ccccc4n(C)c23)O1 (stereo not drawn) | > 10 µM | > 10 µM | > 10 µM | > 10 µM | > 10 µM | > 10 µM | > 10 µM | > 10 µM | > 10 µM | > 10 µM |  |  |  |  |  |  |  |  | 
CSc1ncnc2c1ncn2CCC#N | > 100 µM | > 100 µM | > 100 µM | > 100 µM |  | > 100 µM | > 100 µM | > 100 µM | > 100 µM | > 100 µM |  |  |  |  |  |  |  |  | 
CC(=O)OCC1OC(n2c3c(cc(C#N)c2=S)CCCCC3)C(OC(C)=O)C(OC(C)=O)C1OC(C)=O (stereo not drawn) | > 100 µM | > 100 µM | > 100 µM | > 100 µM | > 100 µM | > 100 µM | > 100 µM | > 100 µM | > 100 µM | > 100 µM |  |  |  |  |  |  |  |  | 
O=c1oc2ccc([N+](=O)[O-])cc2c(Nc2ccc3c(c2)Oc2ccccc2O3)c1[N+](=O)[O-] | > 100 µM | 67.9 µM | 87.1 µM | 67.5 µM | > 100 µM | > 100 µM | > 100 µM | 86.7 µM | 84.7 µM | 70.2 µM |  |  |  |  |  |  |  |  | 
CCC/C(Cl)=N\OC(=O)Nc1ccc(OC(F)(F)F)cc1 | 40.1 µM | 26.1 µM | 34.5 µM | 40.3 µM |  | 31.7 µM | 35.8 µM | > 20.1 µM | > 26.7 µM | 4.43 µM |  |  |  |  |  |  |  |  | 
NC(CCC(=O)NC(CSCC1C(=O)Nc2ccccc21)C(=O)NCC(=O)O)C(=O)O (stereo not drawn) | 37.2 µM | 8.55 µM | 21.9 µM | 17.5 µM | 11 µM | > 45.6 µM | 8.2 µM |  | > 24.8 µM | 6.52 µM |  |  |  |  |  |  |  |  | 
CC1=C(CO)C(=O)O[C@@H]([C@@H](CO)[C@H]2CCC3C4C[C@@H](O)[C@@]5(O)CC=CC(=O)[C@]5(C)C4CC[C@@]32C)C1 (stereo partly drawn) |  | > 100 µM | > 100 µM | > 100 µM | > 100 µM | > 100 µM | > 100 µM | > 100 µM | > 100 µM | > 100 µM |  |  |  |  |  |  |  |  | 
C=C(Cl)C(C)(Cl)CCC(Br)C(C)(C)Cl (stereo not drawn) | 71.9 µM | 31.3 µM | > 100 µM | 30.8 µM |  | 88.6 µM | 33.5 µM | > 100 µM | 67.2 µM | 50.6 µM |  |  |  |  |  |  |  |  | 
O=C1c2cccnc2-c2nccc3c2c1nc1cc(Br)ccc13 | 0.304 µM | 0.188 µM | 0.855 µM | 0.083 µM | 0.25 µM | 0.72 µM | 0.81 µM |  | 0.465 µM | 0.448 µM |  |  |  |  |  |  |  |  | 
O=C1/C(=C/c2ccc(Cl)cc2)CSc2ccccc21 | > 100 µM | 39.3 µM | 45.2 µM | 9.35 µM | > 100 µM |  | 72.7 µM | 92.1 µM | 9.26 µM | 5.29 µM |  |  |  |  |  |  |  |  | 
